Tested on: 616215-338-R-J1-PDC tumor spheroids, viability
Assay: Anticancer human tumor 616215-338-R-J1-PDC patient-derived colon adenocarcinoma cell line growth inhibition [GQUAD]
Conditions: spheroids with HUVEC and MSC; for IC50: curve of first compound; for viability, T/C: stronger effect = lower value; active = viability on the fitted dose curve at most 10% of control; inactive = the rest
In short: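 Multi-cell-type spheroids of tumor cells with HUVEC and mesenchymal stem cells, treated with drug combinations. Concentrations descend in half-log steps from near clinical Cmax, or from 10 microM where Cmax is unknown; viability read-out.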

[1] = second compound 0.0316 µM, first compound 0.0316 µM
[2] = second compound 0.0316 µM, first compound 0.1 µM
[3] = second compound 0.0316 µM, first compound 0.316 µM
[4] = second compound 0.0316 µM, first compound 1 µM
[5] = second compound 0.0316 µM, first compound 3.16 µM
[6] = second compound 0.0316 µM, first compound 10 µM
[7] = second compound 0.1 µM, first compound 0.0316 µM
[8] = second compound 0.1 µM, first compound 0.1 µM
[9] = second compound 0.1 µM, first compound 0.316 µM
[10] = second compound 0.1 µM, first compound 1 µM
[11] = second compound 0.1 µM, first compound 3.16 µM
[12] = second compound 0.1 µM, first compound 10 µM
[13] = second compound 0.316 µM, first compound 0.0316 µM
[14] = second compound 0.316 µM, first compound 0.1 µM
[15] = second compound 0.316 µM, first compound 0.316 µM
[16] = second compound 0.316 µM, first compound 1 µM
[17] = second compound 0.316 µM, first compound 3.16 µM
[18] = second compound 0.316 µM, first compound 10 µM
[19] = second compound 1 µM, first compound 0.0316 µM
[20] = second compound 1 µM, first compound 0.1 µM
[21] = second compound 1 µM, first compound 0.316 µM
[22] = second compound 1 µM, first compound 1 µM
[23] = second compound 1 µM, first compound 3.16 µM
[24] = second compound 1 µM, first compound 10 µM
[25] = second compound 3.16 µM, first compound 0.0316 µM
[26] = second compound 3.16 µM, first compound 0.1 µM
[27] = second compound 3.16 µM, first compound 0.316 µM
[28] = second compound 3.16 µM, first compound 1 µM
[29] = second compound 3.16 µM, first compound 3.16 µM
[30] = second compound 3.16 µM, first compound 10 µM
[31] = second compound 10 µM, first compound 0.0316 µM
[32] = second compound 10 µM, first compound 0.1 µM
[33] = second compound 10 µM, first compound 0.316 µM
[34] = second compound 10 µM, first compound 1 µM
[35] = second compound 10 µM, first compound 3.16 µM
[36] = second compound 10 µM, first compound 10 µM
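Note: spheroids exposed to agents for 7 days before readout.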
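Throughout, for viability, T/C: percent viability relative to DMSO vehicle control wells taken as 100%.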

COc1cc(C2c3cc4c(cc3C(OC3OC5COC(C)OC5C(O)C3O)C3COC(=O)C23)OCO4)cc(OC)c1O (stereo not drawn) + Cc1cnc(CNC(=O)c2c(=O)c3ccc(N4CCCN(C)CC4)nc3n3c2sc2ccccc23)cn1
< 0.0316 µM: IC50 (second compound 0.316 µM) | IC50 (second compound 1 µM) | IC50 (second compound 3.16 µM) | IC50 (second compound 10 µM)
inactive: viability, T/C [1] 104% | viability, T/C [2] 98.3% | viability, T/C [3] 54.3% | viability, T/C [4] 44.2% | viability, T/C [5] 57.3% | viability, T/C [6] 23.9% | viability, T/C [7] 65.7% | viability, T/C [8] 61% | viability, T/C [9] 55.8% | viability, T/C [10] 38.8% | viability, T/C [11] 32.2% | viability, T/C [12] 30.6% | viability, T/C [13] 39.5% | viability, T/C [14] 46.2% | viability, T/C [15] 29.3% | viability, T/C [16] 36.3% | viability, T/C [17] 30.6% | viability, T/C [18] 17.7% | viability, T/C [19] 32.3% | viability, T/C [20] 32.8% | viability, T/C [21] 33.8% | viability, T/C [22] 34.3% | viability, T/C [23] 23.3% | viability, T/C [24] 18.4% | viability, T/C [25] 34.5% | viability, T/C [26] 23.7% | viability, T/C [27] 28.3% | viability, T/C [28] 27% | viability, T/C [29] 28.2% | viability, T/C [30] 24.3% | viability, T/C [31] 28.2% | viability, T/C [32] 29.7% | viability, T/C [33] 26.6% | viability, T/C [34] 36.3% | viability, T/C [35] 22.3% | viability, T/C [36] 23.8%
0.481 µM: IC50 (second compound 0.0316 µM)
0.456 µM: IC50 (second compound 0.1 µM)

CC(C)n1c(=O)n(C)c2cnc3cc(F)c(-c4ccc(OCCCN5CCCCC5)nc4)cc3c21 + CN(C)c1ccc(Nc2c3ccc(NC(=O)CCN4CCCC4)cc3nc3cc(NC(=O)CCN4CCCC4)ccc23)cc1
3.09 µM: IC50 (second compound 10 µM)
inactive: viability, T/C [1] 110% | viability, T/C [2] 112% | viability, T/C [3] 96.3% | viability, T/C [4] 109% | viability, T/C [5] 105% | viability, T/C [6] 62.2% | viability, T/C [7] 110% | viability, T/C [8] 104% | viability, T/C [9] 101% | viability, T/C [10] 111% | viability, T/C [11] 103% | viability, T/C [12] 81.1% | viability, T/C [13] 97.2% | viability, T/C [14] 99.7% | viability, T/C [15] 97.8% | viability, T/C [16] 103% | viability, T/C [17] 121% | viability, T/C [18] 95.7% | viability, T/C [19] 101% | viability, T/C [20] 97.2% | viability, T/C [21] 103% | viability, T/C [22] 97.9% | viability, T/C [23] 111% | viability, T/C [24] 83.5% | viability, T/C [25] 105% | viability, T/C [26] 101% | viability, T/C [27] 101% | viability, T/C [28] 91.9% | viability, T/C [29] 100% | viability, T/C [30] 49.6% | viability, T/C [31] 95.8% | viability, T/C [32] 77.1% | viability, T/C [33] 55.6% | viability, T/C [34] 64.6% | viability, T/C [35] 61.6% | viability, T/C [36] 7.08%
> 10 µM: IC50 (second compound 0.0316 µM) | IC50 (second compound 0.1 µM) | IC50 (second compound 0.316 µM) | IC50 (second compound 1 µM)
9.93 µM: IC50 (second compound 3.16 µM)

CC1COCCN1c1cc(C2(S(C)(=N)=O)CC2)nc(-c2ccnc3[nH]ccc23)n1 (stereo not drawn) + CN(C)c1ccc(Nc2c3ccc(NC(=O)CCN4CCCC4)cc3nc3cc(NC(=O)CCN4CCCC4)ccc23)cc1
5.18 µM: IC50 (second compound 3.16 µM)
2.8 µM: IC50 (second compound 0.0316 µM)
3.47 µM: IC50 (second compound 10 µM)
5.2 µM: IC50 (second compound 1 µM)
5.62 µM: IC50 (second compound 0.316 µM)
inactive: viability, T/C [1] 116% | viability, T/C [2] 102% | viability, T/C [3] 103% | viability, T/C [4] 97.6% | viability, T/C [5] 44.4% | viability, T/C [6] 31.5% | viability, T/C [7] 105% | viability, T/C [8] 97% | viability, T/C [9] 104% | viability, T/C [10] 98% | viability, T/C [11] 63.5% | viability, T/C [12] 28.2% | viability, T/C [13] 98.1% | viability, T/C [14] 106% | viability, T/C [15] 102% | viability, T/C [16] 96.6% | viability, T/C [17] 69.9% | viability, T/C [18] 30.1% | viability, T/C [19] 93.2% | viability, T/C [20] 97.3% | viability, T/C [21] 99.3% | viability, T/C [22] 95.9% | viability, T/C [23] 69.2% | viability, T/C [24] 24.8% | viability, T/C [25] 99% | viability, T/C [26] 102% | viability, T/C [27] 94.3% | viability, T/C [28] 97.7% | viability, T/C [29] 68.1% | viability, T/C [30] 25.9% | viability, T/C [31] 94% | viability, T/C [32] 94% | viability, T/C [33] 89.2% | viability, T/C [34] 86.1% | viability, T/C [35] 51.7% | viability, T/C [36] 29.6%
4.91 µM: IC50 (second compound 0.1 µM)

COc1ccc([C@@H](O)c2cc(-c3ncnc4cc(N5CCOCC5)ccc34)c(F)cc2Cl)nn1 + CN(C)c1ccc(Nc2c3ccc(NC(=O)CCN4CCCC4)cc3nc3cc(NC(=O)CCN4CCCC4)ccc23)cc1
8.16 µM: IC50 (second compound 1 µM)
inactive: viability, T/C [1] 105% | viability, T/C [2] 99.2% | viability, T/C [3] 101% | viability, T/C [4] 98.1% | viability, T/C [5] 93.1% | viability, T/C [6] 58.6% | viability, T/C [7] 96.3% | viability, T/C [8] 94.6% | viability, T/C [9] 104% | viability, T/C [10] 102% | viability, T/C [11] 87.6% | viability, T/C [12] 55.6% | viability, T/C [13] 101% | viability, T/C [14] 93% | viability, T/C [15] 102% | viability, T/C [16] 103% | viability, T/C [17] 97.7% | viability, T/C [18] 54.6% | viability, T/C [19] 97.7% | viability, T/C [20] 100% | viability, T/C [21] 94.3% | viability, T/C [22] 92.7% | viability, T/C [23] 89.1% | viability, T/C [24] 41.3% | viability, T/C [25] 91% | viability, T/C [26] 89.9% | viability, T/C [27] 90.4% | viability, T/C [28] 101% | viability, T/C [29] 74.9% | viability, T/C [30] 30.6% | viability, T/C [31] 91.3% | viability, T/C [32] 90.8% | viability, T/C [33] 93.7% | viability, T/C [34] 64.2% | viability, T/C [35] 57.6% | viability, T/C [36] 10.2%
3.4 µM: IC50 (second compound 10 µM)
6.04 µM: IC50 (second compound 3.16 µM)
> 10 µM: IC50 (second compound 0.0316 µM) | IC50 (second compound 0.1 µM) | IC50 (second compound 0.316 µM)
